{
  "source": "paper PMC12383145",
  "about": "“Fluorescent Peptides Internalize HeLa Cells and Kill Multidrug-Resistant Clinical Bacterial Isolates” (Antibiotics, 2025)",
  "assay_type_in_all_cases": "cell-based",
  "key": {"[1]": {"assay": "MTT cytotoxicity assay in HeLa cells", "conditions": "human", "experimental": "MTT assays were conducted in HeLa cells to evaluate the effect of fluorescent probe incorporation on the in vitro cytotoxic activity of the parent non-conjugated peptides. The cytotoxic effect of peptides 1, Abz-1 RhB-1, 2, and RhB-2 in HeLa cells was peptide concentration-dependent, with the highest anticancer activity observed at 200 µg/mL. Incorporation of 2-Abz and RhB at the N-terminal end reduced cytotoxic activity, while the binding of 2-Abz at the C-terminal end or FAM at the N-terminal end drastically diminished anticancer activity (Table 4)."}, "HeLa cells [2]": {"test_system": "HeLa cells", "assay": "Micrographs of cell morphology after peptide treatment", "conditions": "100 µg/mL, 2 h, 37 °C", "description": "Despite these pronounced morphological alterations, there was no evidence of cell rupture, membrane disintegration, or the presence of cell fragments, indicating the absence of necrotic processes. […] Green arrows indicate normal morphologies, such as cytoplasmic elongations and polygonal shapes. Red arrows indicate morphological changes induced by the peptides, including cell rounding, shrinkage, and loss of cytoplasmic projections. Scale bar: µm. The control corresponds to untreated cells."}, "HeLa cells [3]": {"test_system": "HeLa cells", "assay": "Fluorescence confocal microscopy, colocalization analysis (ImageJ JaCoP)", "conditions": "2 h at IC50, colocalization with SMA antibody", "experimental": "The possible cellular distribution of the peptides was determined by colocalization analysis of the Rhodamine B fluorescent signal, with fluorophores used to stain the nucleus (Hoechst 33342) and cytoplasm components (SMA antibody). ImageJ 1.54f analysis software and the JaCoP plugin were used to analyze signal colocalization.\nHeLa cells (>70% confluence) were seeded on sterile round coverslips in 24-well plates with DMEM + 5% FBS and incubated at 37 °C, 5% CO2 for 24 h. After adhesion, the medium was replaced, and cells were treated with fluorescent peptides at their IC50 for 2 h. Then, cells were washed with PBS under constant stirring (3 × 10 min). Cellular fixation was performed using a solution containing 2% paraformaldehyde and 1% sucrose 100 mM in PBS for 30 min, followed by PBS washes (2 × 10 min). Permeabilization was carried out using a solution of 0.1% Triton X-100 and 20 mM glycine in PBS for 10 min, followed by two additional PBS washes. Blocking was performed with 1% BSA and 20 mM glycine in PBS for 10 min. […] For the fluorescence lecture, 5 µL of Fluoromount mounting medium was applied to the slide, and the coverslip containing the cells was inverted onto the medium. Slides were allowed to be dry-protected from light, and cells were visualized using a Leica DMi8 fluorescence confocal microscope. […]"}},
  "note": "“And” between values parts separate entries of the source, which are not always exact repeats. Identical values can stand only once. Positions of bridges follow the written chain, without caps; N, C: chain ends. Non-standard residues stand in square brackets, D forms with d. Residues, ends and D or L forms follow the SMILES beside them. Chains are numbered I, II in the order given. *: point of attachment. RhodamineB = CCN(CC)c1ccc2c(-c3ccccc3C(=O)*)c3ccc(=[N+](CC)CC)cc-3oc2c1; hPhe = N[C@@H](CCc1ccccc1)C(=O)O; Ahx = NCCCCCC(=O)O",
  "data": [
    {"smiles": "CCN(CC)c1ccc2c(-c3ccccc3C(=O)N[C@@H](CCCNC(=N)N)C(=O)N[C@@H](CCCNC(=N)N)C(=O)N[C@@H](Cc3c[nH]c4ccccc34)C(=O)N[C@@H](CCC(N)=O)C(=O)N[C@@H](Cc3c[nH]c4ccccc34)C(=O)N[C@@H](CCCNC(=N)N)C(=O)N[C@@H](CCc3ccccc3)C(=O)N[C@@H](CCCCN)C(=O)N[C@@H](CCCCN)C(=O)N[C@@H](CC(C)C)C(=O)NCC(=O)NCCCC[C@H](NC(=O)CNC(=O)[C@H](CC(C)C)NC(=O)[C@H](CCCCN)NC(=O)[C@H](CCCCN)NC(=O)[C@H](CCc3ccccc3)NC(=O)[C@H](CCCNC(=N)N)NC(=O)[C@H](Cc3c[nH]c4ccccc34)NC(=O)[C@H](CCC(N)=O)NC(=O)[C@H](Cc3c[nH]c4ccccc34)NC(=O)[C@H](CCCNC(=N)N)NC(=O)[C@H](CCCNC(=N)N)NC(=O)c3ccccc3-c3c4ccc(=[N+](CC)CC)cc-4oc4cc(N(CC)CC)ccc34)C(=O)NCCCCCC(N)=O)c3ccc(=[N+](CC)CC)cc-3oc2c1", "note": "[RhB-2, (RhB-RRWQWR-hF-KKLG)2K-Ahx] (I: RhodamineB-RRWQWR[hPhe]KKLGK[Ahx]-NH2 / II: RhodamineB-RRWQWR[hPhe]KKLG; amide I:12-II:C)", "values": [
      {"measurement": "IC50", "setting": "[1]", "value": "151 µg/mL and 35 µM"},
      {"measurement": "morphological changes", "setting": "HeLa cells [2]", "value": "appeared smaller, rounded, and contained vacuoles"},
      {"measurement": "cellular localization", "setting": "HeLa cells [3]", "value": "internalized and distributed in the cytoplasm"}
    ]}
  ]
}
